Test [1] deals with HS746T gastric carcinoma cells. Kind of test: Cell growth inhibition (CellTiter-Glo), HS746T. It is filed as cell-based. The conditions noted are these: Homo sapiens, HS746T (HER3-low). From the text:
(§1) Esophageal carcinoma cell line OE33 was purchased from ECACC European Collection of Cell Cultures (UK). Breast cancer cell line JIMT-1 and gastric carcinoma cell line MKN-45 were purchased from Deutsche Sammlung von Mikroorganismen and Zellkulturen GmbH (Germany); KPL-4, a human breast cancer cell line was kindly provided by Prof. J Kurebayashi (Kawasaki Medical School, Kurashiki, Japan). […] The LICR-LON-HN5 head and neck carcinoma cell line (HN5) was a gift from the Institute of Cancer Research, Surrey, U.K. HN5C12 was developed by single-cell cloning of HN5 followed by exposure to increasing concentrations of lapatinib. […] Cell growth inhibition was determined via CellTiter-Glo cell viability assays. […] ATP levels were determined by adding Cell Titer Glo0 (Promega), incubating for 20 minutes then the luminescent signal was read on the SpectraMax M5 plate with a 0.5 second integration time. Cell growth was calculated relative to vehicle (DMSO) treated control wells. […] CI values were calculated with the interpolated IC50 values and the mutually non-exclusive equation derived by Chou and […](a)+Db/IC50(b)+(Da×Db)/(IC50(a)×IC50(b)) where IC50(a) is the IC50 of the inhibitor A; IC50(b) is the IC50 for the inhibitor B; […] […] EOHSA at each dose was calculated as the minimum difference in average % inhibition between the combination and each monotherapy, from the appropriate ANOVA contrast. […]
(In general: Cellular ATP, detected with luciferase, serves as a proxy for viable cell number.)

Test [2] relates to OE33 esophageal carcinoma cells. In words: Cell growth inhibition (CellTiter-Glo), OE33. It is filed as cell-based, human. The conditions noted are these: 3 days. The text has this: Esophageal carcinoma cell line OE33 was purchased from ECACC European Collection of Cell Cultures (UK). Breast cancer cell line JIMT-1 and gastric carcinoma cell line MKN-45 were purchased from Deutsche Sammlung von Mikroorganismen and Zellkulturen GmbH (Germany); KPL-4, a human breast cancer cell line was kindly provided by Prof. J Kurebayashi (Kawasaki Medical School, Kurashiki, Japan). […] The LICR-LON-HN5 head and neck carcinoma cell line (HN5) was a gift from the Institute of Cancer Research, Surrey, U.K. HN5C12 was developed by single-cell cloning of HN5 followed by exposure to increasing concentrations of lapatinib. […] Cell growth inhibition was determined via CellTiter-Glo cell viability assays. […] BT474-J4 and HN5C12 were washed with PBS and plated in their culture media without lapatinib. […] ATP levels were determined by adding Cell Titer Glo0 (Promega), incubating for 20 minutes then the luminescent signal was read on the SpectraMax M5 plate with a 0.5 second integration time. Cell growth was calculated relative to vehicle (DMSO) treated control wells. […] Excess Over Highest Single Agent (EOHSA) is defined as a statistically significant improvement in the combination compared to the component monotherapies. […] Analysis was conducted using two-factor analysis of variance with interaction (model terms were dose of drug A, dose of drug B, and interaction between doses of drug A and B), followed by linear contrasts between each combination group and corresponding monotherapies. Analysis was conducted using SAS (version 9, provided by SAS Institute, Cary, N.C.). EOHSA at each dose was calculated as the minimum difference in average % inhibition between the combination and each monotherapy, from the appropriate ANOVA contrast. Since there are many comparisons for the % inhibition endpoint, p-value adjustment for multiple comparisons was performed. Hommel's procedure was implemented in order to improve the power while retaining […] Error Rate (FWE) control by using a sequentially rejective method. The p-values for both synergy and antagonism were calculated using this adjustment.

The test system of test [3] is JIMT-1 breast cancer cells. Kind of test: Cell growth inhibition (CellTiter-Glo), JIMT-1. As to conditions: Homo sapiens, JIMT-1, 72 h, 3 days. It is filed as cell-based.
From the text: as §1

For another test, the system named is BT474-J4 cells. In words: Cell apoptosis assays (Cell Death ELISA, Caspase-Glo 3/7), BT474-J4. In kind it is cell-based, human. The conditions noted are these: BT474-J4, presence of HGF (FIG. 4, FIG. 5B). As to the method: Cell apoptosis was measured by both a cell death ELISA method, which measures DNA fragmentation, a hallmark of apoptosis; and Caspase-Glo® 3/7 assay which detects the activity of caspase 3/7, one of the execution enzymes for apoptosis in cells.
The Cell Death ELISA^Plus kit (Roche, Mannheim, Germany) was used according to the manufacturer's instructions. Cells were seeded in 96-well plates at 10,000 per well. After 24 h, cells were dosed and grown for an additional 48 h in RPMI 1640 with 10% FBS in 5% CO2 at 37° C. Cytoplasmic fractions of control and treated cells were transferred into streptavidin-coated 96-well plates and incubated with biotinylated mouse antihistone antibody and peroxidase-conjugated mouse anti-DNA antibody at room temperature for 2 h. Absorbance was determined at 405-490 nm using a Spectra Max Gemini microplate reader (Molecular Devices, Sunnyvale, Calif.).
The Caspase-Glo® 3/7 assay (Promega) is a homogeneous luminescent assay that measures caspase-3 and -7 activities. Cells were seeded in 96-well plates at 5,000 per well. […] Caspase 3/7 activity was detected by adding luminogenic caspase-3/7 substrate, which contains the tetrapeptide sequence DEVD, in a reagent optimized for caspase activity, luciferase activity and cell lysis, according to the manufacturer's instructions.
(In general: An ELISA detects its analyte on a solid surface through an enzyme-linked reagent.)

The test system of test [4] is phosphorylation of HER2, AXL, AKT, ERK and cyclin D1 in BT474-J4 cells. Kind of test: Western blot analysis, BT474-J4. The conditions noted are these: BT474-J4, 1 μM each, 4 h. (In western blotting, separated proteins are transferred to a membrane and probed.)
Description: Cells were plated at 250,000 to 500,000 per well in six-well plates (Falcon multiwell, Becton Dickinson, Franklin Lakes, N.J.). The following day, cells were treated with compounds in the growth medium containing 10% FBS. After treatment, cells were washed with cold PBS and lysed in the culture dishes using cell lysis buffer [40 mmol/L Tris-HCl (pH 7.4), 10% glycerol, 50 mmol/L beta-glycerophosphate, 5 mmol/L EGTA, 2 mmol/L EDTA, 0.35 mmol/L vanadate, 10 mmol/L NaF, and 0.3% Triton X-100] containing protease inhibitors (Complete Protease Inhibitor Tablets, Boehringer Mannheim, Indianapolis, Ind.). […] The membrane blots were rinsed with PBS and blocked in Odyssey Blocking buffer for 1 h at RT. Blots were probed with antibodies against specific proteins in blocking buffer plus 0.1% Tween 20 and incubated for 2 h at room temperature. The membranes were washed and incubated with IRDye 680 or IRDye 800 secondary antibodies at RT for 1 h in blocking buffer plus 0.1% Tween 20. The membranes were developed with Odyssey Infrared Imaging System (LI-COR Biosciences, Lincoln, Nebr.).
Cell lysate (50 μg of total protein) or proteins immunoprecipitated with anti-phospho-Tyrosine antibody were loaded in SDS-PAGE gel. The antibody against specific protein was used in the western blot analysis.
In test [5] the test system is SW48 colon carcinoma cells. Kind of test: Cell growth inhibition (CellTiter-Glo), SW48. It is filed as cell-based. As to conditions: Homo sapiens, SW48, 72 h, 3 days.
From the text: as §1

A value given as a limit tells only on which side of the number the result lay.

As for `CS(=O)(=O)CCNCc1ccc(-c2ccc3ncnc(Nc4ccc(OCc5cccc(F)c5)c(Cl)c4)c3c2)o1` [Lapatinib, N-(3-chloro-4-{[(3-fluorophenyl)methyl]oxy}phenyl)-6-[5-({[2-(methylsulfonyl)ethyl]amino}methyl)-2-furanyl]-4-quinazolinamine], the IC50 is 7.37 µM in test [1] (+HRG (10 ng/mL)); 7.69 µM in test [1] (−HRG); > 10 µM in test [2] (Homo sapiens, OE33, 72 h, eso_OE33, +HGF (2 ng/mL)); 6.5 µM in test [2] (Homo sapiens, OE33, 72 h, eso_OE33, −HGF); 5.52 µM in test [2] (eso_OE33, +HGF (2 ng/mL)); 6.52 µM in test [2] (eso_OE33, −HGF). Further, the 50% inhibitory concentration (IC50) in test [3] (breast_JimT1, +HGF (2 ng/mL)) is > 10 µM; in test [3] (breast_JimT1, −HGF), > 10 µM. The “apoptosis induction (DNA fragmentation and caspase 3/7 activation)” value in the test on BT474-J4 cells is listed as “only in BT474”. Also, the “phosphorylation of HER2” value in test [4] is on record as “inhibits”.
Consider `C#Cc1cccc(Nc2ncnc3cc(OCCOC)c(OCCOC)cc23)c1` [Erlotinib, N-(3-ethynylphenyl)-6,7-bis{[2-(methyloxy)ethyl]oxy}-4-quinazolinamine], for which the IC50 turned out to be 2.62 µM in test [5] (colon_SW48, +HGF (2 ng/mL)) and 2.35 µM in test [5] (colon_SW48, −HGF).

By IC50 is commonly meant the concentration needed to halve the response being measured.
